Patent EP0850306B1, “LACCASES WITH AN ALTERED pH ACTIVITY PROFILE” (Novozymes Biotech, Inc., priority 1995, dated 1997)
Like-named read-outs stand apart in the source and are kept apart here.

What was measured:
[1] = target: T1, Myceliophthora thermophila laccase (MtL) mutant "T", V509L/S510E/G511A (pBANe22T) (Thermothelomyces thermophilus, UniProt G2QG31, G554A/S553E/V552L); test: Laccase substrate oxidation kinetics (Km, kcat), MtL mutant "T"; type: biochemical; conditions: read-out: Km (ABTS); 8 mM MES-NaOH buffer, pH 5.3; spectroscopic
T1 sequence (G2QG31 48-602 V552L/S553E/G554A): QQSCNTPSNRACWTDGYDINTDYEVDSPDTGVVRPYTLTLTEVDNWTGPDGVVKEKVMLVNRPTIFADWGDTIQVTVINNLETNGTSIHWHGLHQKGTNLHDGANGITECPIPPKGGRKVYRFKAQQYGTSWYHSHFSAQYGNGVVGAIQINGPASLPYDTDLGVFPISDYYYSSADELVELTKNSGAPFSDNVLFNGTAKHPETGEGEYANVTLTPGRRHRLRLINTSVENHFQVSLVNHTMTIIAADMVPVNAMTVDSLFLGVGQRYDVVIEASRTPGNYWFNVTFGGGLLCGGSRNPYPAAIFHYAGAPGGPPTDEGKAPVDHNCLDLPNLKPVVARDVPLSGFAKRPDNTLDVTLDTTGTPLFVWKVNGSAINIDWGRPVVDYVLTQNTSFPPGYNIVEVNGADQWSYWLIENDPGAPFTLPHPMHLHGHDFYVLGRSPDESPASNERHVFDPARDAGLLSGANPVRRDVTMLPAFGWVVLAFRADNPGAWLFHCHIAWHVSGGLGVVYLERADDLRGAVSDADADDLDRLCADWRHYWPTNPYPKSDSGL
Experimental: (§1) The absorbance at 530 nm is measured over time in a UV-VIS spectrophotometer. One laccase unit (LACU) is defined as the amount of enzyme which oxidizes one µmole of substrate per minute at 30°C.
(§2) Km and kcat are obtained from the initial rate (v), enzyme concentration (E), and substrate concentration (S) in accordance to the equation v = kcat ES/( Km + S) by non-linear regression fitting using the Prizm program (GraphPad, San Diego, CA). […] The O2 concentration in air-saturated buffer solution is assumed as the same in plain water (0.28 mM).

[2] = target: T2, Myceliophthora thermophila laccase (MtL, lcc-1), wild type (pRaMB17), SEQ ID NOS:26 and 27 (Thermothelomyces thermophilus, UniProt G2QG31); test: Laccase substrate oxidation kinetics (Km, kcat), MtL wild type; type: biochemical; conditions: 8 mM MES-NaOH buffer, pH 5.3, spectroscopic
T2 sequence (G2QG31 48-602): T1 sequence (G2QG31 48-602 V552L/S553E/G554A)
Experimental: as §1, §2

[3] = target: T3, Rhizoctonia solani laccase isozyme 4 (RsL, rsl4), wild type (pJiWa59), SEQ ID NOS:24 and 25 (Thanatephorus cucumeris, UniProt Q02081); test: Laccase substrate oxidation kinetics (Km, kcat), RsL wild type; type: biochemical; conditions: read-out: Km (ABTS); 8 mM MES-NaOH buffer, pH 5.3; spectroscopic
T3 construct: made in house; host or cells: Aspergillus oryzae HowB104
T3 sequence (Q02081 20-531): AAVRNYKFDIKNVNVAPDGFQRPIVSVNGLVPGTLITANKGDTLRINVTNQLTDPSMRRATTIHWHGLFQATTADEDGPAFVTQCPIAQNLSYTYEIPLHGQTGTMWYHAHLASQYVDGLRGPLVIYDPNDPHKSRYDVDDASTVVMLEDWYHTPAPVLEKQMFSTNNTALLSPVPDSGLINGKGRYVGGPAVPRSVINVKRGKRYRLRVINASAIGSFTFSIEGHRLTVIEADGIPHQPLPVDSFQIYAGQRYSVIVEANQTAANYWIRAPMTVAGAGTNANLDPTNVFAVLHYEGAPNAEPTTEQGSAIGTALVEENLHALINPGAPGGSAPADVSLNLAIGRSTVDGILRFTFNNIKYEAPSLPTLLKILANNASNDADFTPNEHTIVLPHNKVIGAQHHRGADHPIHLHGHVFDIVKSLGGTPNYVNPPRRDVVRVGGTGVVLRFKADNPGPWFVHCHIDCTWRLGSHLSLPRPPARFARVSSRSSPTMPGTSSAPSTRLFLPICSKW
Experimental: as §1, §2

[4] = test system: COc1cc(C=NN=Cc2cc(OC)c(O)c(OC)c2)cc(OC)c1O; test: Laccase substrate oxidation kinetics (Km, kcat), MtL mutant "T"; type: biochemical, Myceliophthora thermophila; conditions: other: 8 mM MES-NaOH buffer, pH 5.3, spectroscopic
Experimental: as §1, §2

For `CCn1c(=NN=c2sc3cc(S(=O)(=O)O)ccc3n2CC)sc2cc(S(=O)(=O)O)ccc21` [ABTS, 2,2'-azinobis(3-ethylbenzthiazoline-6-sulfonic acid)], the Km [1] was 11 ± 2 µM, the Km ([2]; read-out: Km (ABTS)) was 110 ± 20 µM and the Km [3] was 52 ± 6 µM.

For `COc1cc(C=NN=Cc2cc(OC)c(O)c(OC)c2)cc(OC)c1O` [SGZ, syringaldazine], the “kcat (SGZ)” value [2] was 4500 ± 200 min⁻¹ and the Km ([2]; read-out: Km (SGZ)) was 1.4 ± 0.2 µM.

With “Myceliophthora thermophila laccase (MtL) mutant "T", V509L/S510E/G511A (pBANe22T) (Thermothelomyces thermophilus ATCC 42464; G554A/S553E/V552L)” the Km [4] was 0.9 ± 0.2 µM and the kcat [4] was 360 ± 20 min⁻¹.
